Reference: paper PMC7281973, “Biological and Computational Studies for Dual Cholinesterases Inhibitory Effect of Zerumbone” (Nutrients, 2020)
Read-outs that look alike come from different tables or passages of the source.

What was measured:
BChE [1] = target: T1, BChE (Equus caballus, UniProt P81908); settings: ref Xavier et al. 2015; cited from earlier work
BChE [2] = target: T1, BChE; experiment: Anti-cholinesterase activity assay (modified Ellman method), BChE; format: biochemical
Method: (§2) AChE or BChE (0.8 U/mL) was added to a mixture which contained 0.1 M sodium phosphate buffer, 5 mM DTNB, and a tested sample, and then incubated at 37 °C for 15 min.
(§3) The cholinesterases inhibition kinetics of zerumbone were analyzed using Dixon and Lineweaver-Burk plots. The dissociation constant (Ki) was determined by interpretation of the Dixon plot, and Vmax and Km were calculated by Lineweaver–Burk plots, using the initial velocities obtained over a substrate concentration range [11].

transgenic APP/PS1 mice = settings: 25 mg/kg; cited from earlier work
Elastase = target: T2, Elastase (Sus scrofa, UniProt P00772); experiment: Enzyme selectivity assay, elastase; format: biochemical; settings: mean ± SD, read-out: Inhibitory activity (%) against Elastase
T2 construct: purchased Sigma-Aldrich
T2 sequence (P00772 27-266): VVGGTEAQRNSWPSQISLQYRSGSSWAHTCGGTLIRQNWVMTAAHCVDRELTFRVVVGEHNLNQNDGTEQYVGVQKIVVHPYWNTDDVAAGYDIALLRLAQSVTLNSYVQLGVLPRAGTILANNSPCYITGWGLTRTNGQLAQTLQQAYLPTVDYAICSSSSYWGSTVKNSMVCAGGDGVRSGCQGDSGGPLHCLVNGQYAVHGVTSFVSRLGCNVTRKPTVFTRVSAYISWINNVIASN
Method: (§1) To determine enzyme selectivity, trypsin, chymotrypsin, and elastase were analyzed using […], and N-succinyl-Ala-Ala-Ala-pNA as substrates, respectively. The reaction mixture was incubated for 20 min and the absorbance was measured at 410 nm.

AChE = AChE (Electrophorus electricus, UniProt O42275); settings: Dixon and Lineweaver-Burk plots
Sequence of AChE (O42275 24-633): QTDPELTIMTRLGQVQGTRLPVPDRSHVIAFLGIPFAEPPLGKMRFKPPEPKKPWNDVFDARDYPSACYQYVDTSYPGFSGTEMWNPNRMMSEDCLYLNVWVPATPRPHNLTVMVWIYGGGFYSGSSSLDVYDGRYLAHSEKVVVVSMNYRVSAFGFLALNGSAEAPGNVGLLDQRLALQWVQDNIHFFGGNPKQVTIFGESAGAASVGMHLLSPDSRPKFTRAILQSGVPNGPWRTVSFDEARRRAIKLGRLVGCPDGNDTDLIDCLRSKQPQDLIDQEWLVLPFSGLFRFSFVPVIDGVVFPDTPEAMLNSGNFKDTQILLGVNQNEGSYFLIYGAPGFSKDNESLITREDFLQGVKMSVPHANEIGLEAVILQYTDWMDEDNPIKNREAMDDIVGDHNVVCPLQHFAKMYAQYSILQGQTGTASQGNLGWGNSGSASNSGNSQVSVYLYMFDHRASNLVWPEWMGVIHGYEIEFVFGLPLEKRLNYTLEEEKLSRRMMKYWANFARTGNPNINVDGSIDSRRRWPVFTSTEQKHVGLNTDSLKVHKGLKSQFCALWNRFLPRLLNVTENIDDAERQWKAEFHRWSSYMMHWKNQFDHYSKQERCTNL
Method: as §2, §3

mice = settings: cited from earlier work
Trypsin = experiment: Enzyme selectivity assay, trypsin; format: biochemical; settings: mean ± SD
Method: as §1

Chymotrypsin = target: T3, Chymotrypsin (Bos taurus, UniProt P00766); experiment: Enzyme selectivity assay, chymotrypsin; format: biochemical; settings: mean ± SD, read-out: Inhibitory activity (%) against Chymotrypsin
T3 construct: purchased Sigma-Aldrich
Method: as §1

Sprague–Dawley rats = settings: 1 and 10 mg/kg; cited from earlier work
BACE1 = target: T4, BACE1 (Homo sapiens, UniProt P56817); experiment: BACE1 FRET assay; format: biochemical; settings: mean ± SD, read-out: Inhibitory activity (%) against BACE1
T4 construct: purchased Thermo Fisher Scientific, Inc; host or cells: baculovirus expression system
T4 sequence (P56817 46-501): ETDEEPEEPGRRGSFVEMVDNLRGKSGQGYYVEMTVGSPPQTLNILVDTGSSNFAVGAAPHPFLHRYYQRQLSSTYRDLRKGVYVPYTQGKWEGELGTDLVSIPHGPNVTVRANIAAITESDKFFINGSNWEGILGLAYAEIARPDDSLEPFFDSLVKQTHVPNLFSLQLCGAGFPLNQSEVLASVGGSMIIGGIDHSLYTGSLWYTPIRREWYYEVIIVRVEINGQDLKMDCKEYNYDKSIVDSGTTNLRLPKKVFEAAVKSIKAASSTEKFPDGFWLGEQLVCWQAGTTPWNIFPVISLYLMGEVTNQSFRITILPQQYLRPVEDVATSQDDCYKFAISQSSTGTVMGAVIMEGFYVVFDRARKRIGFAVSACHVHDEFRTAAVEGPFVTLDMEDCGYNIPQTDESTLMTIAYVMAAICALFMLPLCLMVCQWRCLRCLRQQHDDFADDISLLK
Method: To evaluate BACE1 inhibitory activity, a BACE1 FRET assay kit with a recombinant baculovirus-expressed BACE1 and a Rh-[…]-Quencher substrate was used. Briefly, a mixture of BACE1 (1.0 U/mL), the substrate, and tested sample at a different concentration, was incubated for 60 min at 25 °C in well plates. The increase in fluorescence intensity was measured by a fluorescence microplate reader at excitation and emission wavelengths of 545/590 nm (FLX800, Winooski, VT, USA). The inhibitory ratio (%) was calculated using the formula: Inhibition (%) = [1 − (S − S0)/(C − C0)] × 100, where C is the absorbance of control after 60 min of incubation, C0 is the absorbance of control at time 0, S was the absorbance of samples after 60 min of incubation, and S0 was the absorbance of the samples at time 0.

[3] = test system: oxidative stress related inflammation and cancer cell proliferation; settings: cited from earlier work

T1 sequence (P81908 whole entry): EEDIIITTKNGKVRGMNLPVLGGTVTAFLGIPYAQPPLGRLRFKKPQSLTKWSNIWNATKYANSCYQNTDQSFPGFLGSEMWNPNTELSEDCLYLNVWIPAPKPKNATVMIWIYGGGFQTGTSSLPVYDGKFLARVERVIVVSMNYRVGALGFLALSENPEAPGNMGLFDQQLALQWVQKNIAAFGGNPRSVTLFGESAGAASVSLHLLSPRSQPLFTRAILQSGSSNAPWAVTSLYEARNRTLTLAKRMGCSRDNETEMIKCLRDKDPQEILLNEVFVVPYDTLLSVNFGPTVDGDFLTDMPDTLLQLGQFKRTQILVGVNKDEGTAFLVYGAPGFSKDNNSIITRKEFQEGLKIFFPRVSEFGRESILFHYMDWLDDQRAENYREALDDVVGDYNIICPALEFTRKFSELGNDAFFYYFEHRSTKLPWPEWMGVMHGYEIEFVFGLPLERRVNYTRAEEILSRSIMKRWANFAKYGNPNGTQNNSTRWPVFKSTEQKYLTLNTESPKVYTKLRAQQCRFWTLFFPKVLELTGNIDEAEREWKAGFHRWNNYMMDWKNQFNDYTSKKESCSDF

## COc1ccc2c3c1O[C@H]1C[C@@H](O)C=C[C@@]31CCN(C)C2 [Galantamine]
BChE [1]
  BChE Inhibition Type: Competitive ^5

## C/C1=C\CC(C)(C)/C=C/C(=O)/C(C)=C/CC1 [Zerumbone]
BChE [2]; Dixon and Lineweaver-Burk plots
  BChE Inhibition Type: Competitive
BChE [2]; versus positive control galantamine
  Fold more potent BChE suppression in comparison to galantamine: approximately 3 fold
Transgenic APP/PS1 mice
  Effect on behavioral impairments and Aβ deposition: alleviated behavioral impairments and Aβ deposition
Elastase; 50 µM
  inhibition at 50 µM: 3.46 ± 1.85%
Elastase; 100 µM
  inhibition at 100 µM: 3.57 ± 0.94%
AChE
  AChE Inhibition Type: Non-competitive
mice; mouse, in vivo, ip
  Genotoxicity, organ weight, clinical chemistry, hematology, histopathology: did not cause any genotoxicity
mice; previous in vivo studies
  Acute toxicity in vivo: did not produce significant acute toxicity
Trypsin; 50 µM
  Inhibitory activity (%) against Trypsin: 5.00 ± 1.94%
Trypsin; 100 µM
  Inhibitory activity (%) against Trypsin: 3.75 ± 2.03%
Chymotrypsin; 50 µM
  inhibition at 50 µM: 3.45 ± 0.3%
Chymotrypsin; 100 µM
  inhibition at 100 µM: 2.71 ± 0.45%
Sprague–Dawley rats
  Effect on cognitive impairments and memory deficits related to scopolamine: attenuated cognitive impairments and memory deficits
BACE1; 50 µM
  inhibition at 50 µM: 13.3 ± 1.2%
BACE1; 100 µM
  inhibition at 100 µM: 16.1 ± 1.36%

## C/C1=C\CC/C(C)=C/CC(C)(C)/C=C/C1 [α-Humulene]
[3]
  Activity in oxidative stress related inflammation and cancer cell proliferation: virtually inactive
